System: kidney injury (ischemia-reperfusion)
Conditions: rat; for blood urea nitrogen (BUN) / plasma creatinine: 15 mg/kg IV after ischemia-reperfusion, 24 hours after reperfusion, vs IR-vehicle; for kidney injury: dosed IV after ischemia-reperfusion

## C[C@H]1CN(c2ccc(C#N)cn2)CCN1C(=O)CCc1nc2cccc(F)c2c(=O)[nH]1 [Ex. 30, 6-[(3S)-4-[3-(5-fluoro-4-oxo-3H-quinazolin-2-yl)propanoyl]-3-methyl-piperazin-1-yl]pyridine-3-carbonitrile]
  blood urea nitrogen (BUN): significantly reduced
  plasma creatinine: significantly reduced
  kidney injury: reduced kidney injury

## C[C@H]1CN(c2ccc(C#N)cn2)CCN1C(=O)CCc1nc2ccc(F)cc2c(=O)[nH]1 [Ex. 29, 6-[(3S)-4-[3-(6-fluoro-4-oxo-3H-quinazolin-2-yl)propanoyl]-3-methyl-piperazin-1-yl]pyridine-3-carbonitrile]
  blood urea nitrogen (BUN): significantly reduced
  plasma creatinine: significantly reduced
  kidney injury: reduced kidney injury
